Reference: patent US10167264B2, “Substituted pyrimidines useful as EGFR-T790M kinase inhibitors” (JIANGSU MEDOLUTION LTD, priority 2014, dated 2019)
Entries after “also recorded” stand apart in the source; their conditions may differ.

Experiments:
[1] = test system: NCI-H1975 cell line xenograft; experiment: Subcutaneous NCI-H1975 cell line xenograft model in nude mice; type: in vivo; settings: for Tumor growth inhibition (TGI, %) in NCI-H1975 xenograft model: nude mice; for Efficacy in the NCI-H1975 xenograft study (in words): Day 14
Experimental: A representative protocol for the in vivo experiment is as follows to establish the subcutaneous NCI-H1975 cell line xenograft model in nude mice and to evaluate the in vivo therapeutic efficacy of the compounds: H1975 cells were cultured in RPMI1640 containing 10% fetal bovine serum, 1% L-glutamine, 100 U/mL penicillinG and 100 μg/mL streptomycin. Cells in logarithmic growth phase were harvested and resuspended in 1×PBS for implantation. Tumor xenografts were established by injecting tumor cells 5×10^6/mouse into the right flank by sc under sterile conditions. When the tumors reached an appropriate size (100-200 mm^3), mice were randomized into 6 mice per group (8 mice in control group). The tumors were measured using a caliper in two dimensions, length (a), and width (b). Tumor volumes were estimated from measurements of two diameters of the individual tumors as follows: Tumor Volume (mm^3)=(a×b^2)/2 The tumor sizes and animal body weights were measured twice a week. Mice were observed daily for clinical signs. Blood samples were collected 2 hours after the last treatment, plasma samples were prepared and stored at −80° C. Tumor tissues were separated, weighed, taken picture, and subsequently stored at −80° C. for further analysis. All animal experiments were performed in accordance with the Guidelines for Use and Care of Animals of the University of Traditional Medicine. The parameters for in vivo efficacy evaluation were calculated according to the guidance of SFDA. Percent T/C (%) was calculated with the following formula: T/C(%)=(TRTV/CRTV)×100%, where TRTV and CRTV stand for relative tumor volume in treatment group and vehicle control group, respectively. Relative tumor volume (RTV) was calculated using the formula: RTV=Vt/V0, where Vt represents volume on testing day, and V0 represents volume on first day of treatment. […] At the study endpoint, after blood collection, mice were practised euthanasia by cervical dislocation, the tumor tissue was collected first, then the abdominal cavity was cut open, liver and spleen were excised, and weighted after the gallblader was removed respectively. Organ weights between the treated versus the control groups were compared.

NCI-H1975 = experiment: Cell proliferation assay (MTT) against cancer cell line NCI-H1975; type: cell-based; settings: Homo sapiens, NCI-H1975, 72 hours treatment, quantity not given
Experimental: A Representative Number of Compounds were Assayed Against Cancer Cell Lines NCI-H1975, Using the Cell Proliferation Assay:
1. 5×10^3 cells per well in 100 μl of medium were seeded in 96-well plate, while the medium contained 5% FBS
2. 24 hours later, 100 μl fresh medium was added with various concentrations of compounds into each well, while the medium here was free of FBS
3. After the cells were treated with compounds for 72 hours, 20 μl MTT (5 mg/ml) was added into each well, and then the assay plate was incubated at 37° C. for 4 more hours.
4. The assay plate was centrifuged at 800 g for 10 min. The medium was aspirated, 150 μl DMSO was added into each well. The plate was gently shaken for 10 min.
5. The absorbance at 570 nm was measured on the plate reader.

EGFR = EGFR (Homo sapiens (Human), UniProt P00533); experiment: In vitro EGFR kinase binding assay (Kd), similar condition
EGFR, sequence (P00533 25-1210): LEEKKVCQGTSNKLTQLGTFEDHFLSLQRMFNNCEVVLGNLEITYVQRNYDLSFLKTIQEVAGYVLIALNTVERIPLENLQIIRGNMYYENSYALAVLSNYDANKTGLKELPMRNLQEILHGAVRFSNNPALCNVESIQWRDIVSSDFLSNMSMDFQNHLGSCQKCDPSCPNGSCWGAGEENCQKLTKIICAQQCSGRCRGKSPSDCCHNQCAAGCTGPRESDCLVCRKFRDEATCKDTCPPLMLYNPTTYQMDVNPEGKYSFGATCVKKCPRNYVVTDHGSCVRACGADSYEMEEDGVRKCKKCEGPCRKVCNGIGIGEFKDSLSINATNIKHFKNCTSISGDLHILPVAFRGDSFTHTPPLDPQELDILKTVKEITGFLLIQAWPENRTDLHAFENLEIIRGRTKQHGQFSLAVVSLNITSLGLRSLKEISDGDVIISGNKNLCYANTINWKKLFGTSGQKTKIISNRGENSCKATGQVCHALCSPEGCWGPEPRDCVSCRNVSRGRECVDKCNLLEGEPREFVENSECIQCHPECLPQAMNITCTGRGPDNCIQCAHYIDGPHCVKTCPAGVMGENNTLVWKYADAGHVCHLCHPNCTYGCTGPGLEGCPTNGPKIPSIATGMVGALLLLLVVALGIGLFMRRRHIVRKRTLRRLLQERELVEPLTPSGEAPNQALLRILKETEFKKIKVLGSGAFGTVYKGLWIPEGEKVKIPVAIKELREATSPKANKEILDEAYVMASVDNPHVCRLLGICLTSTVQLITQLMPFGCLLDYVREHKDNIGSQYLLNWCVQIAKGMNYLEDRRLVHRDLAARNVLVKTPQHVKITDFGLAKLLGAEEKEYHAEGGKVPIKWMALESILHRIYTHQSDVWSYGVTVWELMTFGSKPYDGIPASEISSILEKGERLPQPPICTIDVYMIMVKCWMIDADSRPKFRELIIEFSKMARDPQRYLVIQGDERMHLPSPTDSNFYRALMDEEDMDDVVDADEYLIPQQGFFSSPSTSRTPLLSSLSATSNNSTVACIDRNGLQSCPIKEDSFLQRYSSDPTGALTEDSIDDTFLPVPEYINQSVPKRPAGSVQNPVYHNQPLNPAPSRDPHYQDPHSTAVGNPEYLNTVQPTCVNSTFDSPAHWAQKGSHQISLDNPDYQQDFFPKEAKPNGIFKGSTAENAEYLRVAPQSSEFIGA
Experimental: (§1) Kinase-tagged T7 phage strains were prepared in an E. coli host derived from the BL21 strain. E. coli were grown to log-phase and infected with T7 phage and incubated with shaking at 32° C. until lysis. The lysates were centrifuged and filtered to remove cell debris. The remaining kinases were produced in HEK-293 cells and subsequently tagged with DNA for qPCR detection. Streptavidin-coated magnetic beads were treated with biotinylated small molecule ligands for 30 minutes at room temperature to generate affinity resins for kinase assays. The liganded beads were blocked with excess biotin and washed with blocking buffer (SeaBlock (Pierce), 1% BSA, 0.05% Tween 20, 1 mM DTT) to remove unbound ligand and to reduce non-specific binding. […] All reactions were performed in polystyrene 96-well plates in a final volume of 0.135 ml. […] The kinase concentration in the eluates was measured by qPCR.
(§2) An 11-point 3-fold serial dilution of each test compound was prepared in 100% DMSO at 100× final test concentration and subsequently diluted to 1× in the assay (final DMSO concentration=1%). Kds were determined using a compound top concentration=10,000 nM.
(§3) Binding constants (Kds) were calculated with a standard dose-response curve using the Hill equation: Response=Background+(Signal−Background)/(1+(Kd^Hill Slope/Dose^Hill Slope)). The Hill Slope was set to −1. […]

EGFR (E746-A750del) = EGFR (E746-A750del) (Homo sapiens (Human), UniProt P00533, DEL746-750); experiment: In vitro EGFR (E746-A750del) kinase binding assay (Kd), similar condition
EGFR (E746-A750del), sequence (P00533 other isoform, or with tags, fused parts or gaps del E746-A750): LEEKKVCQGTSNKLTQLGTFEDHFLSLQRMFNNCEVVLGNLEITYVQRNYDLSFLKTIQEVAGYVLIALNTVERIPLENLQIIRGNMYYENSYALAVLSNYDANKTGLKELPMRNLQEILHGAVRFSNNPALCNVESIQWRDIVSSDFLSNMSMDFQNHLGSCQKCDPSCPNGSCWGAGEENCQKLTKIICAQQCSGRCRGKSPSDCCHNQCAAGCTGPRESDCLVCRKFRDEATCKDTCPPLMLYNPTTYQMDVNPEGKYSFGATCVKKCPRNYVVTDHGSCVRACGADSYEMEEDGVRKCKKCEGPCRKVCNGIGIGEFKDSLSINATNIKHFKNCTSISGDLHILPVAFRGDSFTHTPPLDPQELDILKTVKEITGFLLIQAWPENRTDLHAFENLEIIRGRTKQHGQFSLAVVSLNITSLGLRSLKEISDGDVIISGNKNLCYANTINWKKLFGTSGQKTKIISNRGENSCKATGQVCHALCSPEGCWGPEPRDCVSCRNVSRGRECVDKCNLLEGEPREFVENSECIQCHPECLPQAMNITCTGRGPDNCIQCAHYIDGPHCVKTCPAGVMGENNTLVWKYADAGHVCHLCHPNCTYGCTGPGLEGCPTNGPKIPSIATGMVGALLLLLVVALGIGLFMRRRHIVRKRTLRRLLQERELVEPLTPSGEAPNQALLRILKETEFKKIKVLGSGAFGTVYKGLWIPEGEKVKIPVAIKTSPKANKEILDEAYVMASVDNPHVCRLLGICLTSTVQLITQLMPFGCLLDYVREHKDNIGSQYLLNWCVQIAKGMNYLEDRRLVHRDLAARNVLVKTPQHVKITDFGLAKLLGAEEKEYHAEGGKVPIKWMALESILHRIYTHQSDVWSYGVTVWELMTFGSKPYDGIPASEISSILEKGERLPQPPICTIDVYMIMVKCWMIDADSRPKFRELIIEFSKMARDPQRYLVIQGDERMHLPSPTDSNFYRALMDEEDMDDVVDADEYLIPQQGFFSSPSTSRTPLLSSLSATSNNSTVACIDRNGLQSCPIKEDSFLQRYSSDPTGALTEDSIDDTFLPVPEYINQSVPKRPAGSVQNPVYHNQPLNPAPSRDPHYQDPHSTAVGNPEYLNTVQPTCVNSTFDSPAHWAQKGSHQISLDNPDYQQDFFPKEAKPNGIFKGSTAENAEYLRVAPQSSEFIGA
Experimental: as §1, §2, §3

EGFR (T790M/L858R) = EGFR (T790M/L858R) (Homo sapiens (Human), UniProt P00533, L858R/T790M); experiment: In vitro EGFR (T790M/L858R) kinase binding assay (Kd, qPCR readout)
EGFR (T790M/L858R), sequence (P00533 25-1210 T790M/L858R): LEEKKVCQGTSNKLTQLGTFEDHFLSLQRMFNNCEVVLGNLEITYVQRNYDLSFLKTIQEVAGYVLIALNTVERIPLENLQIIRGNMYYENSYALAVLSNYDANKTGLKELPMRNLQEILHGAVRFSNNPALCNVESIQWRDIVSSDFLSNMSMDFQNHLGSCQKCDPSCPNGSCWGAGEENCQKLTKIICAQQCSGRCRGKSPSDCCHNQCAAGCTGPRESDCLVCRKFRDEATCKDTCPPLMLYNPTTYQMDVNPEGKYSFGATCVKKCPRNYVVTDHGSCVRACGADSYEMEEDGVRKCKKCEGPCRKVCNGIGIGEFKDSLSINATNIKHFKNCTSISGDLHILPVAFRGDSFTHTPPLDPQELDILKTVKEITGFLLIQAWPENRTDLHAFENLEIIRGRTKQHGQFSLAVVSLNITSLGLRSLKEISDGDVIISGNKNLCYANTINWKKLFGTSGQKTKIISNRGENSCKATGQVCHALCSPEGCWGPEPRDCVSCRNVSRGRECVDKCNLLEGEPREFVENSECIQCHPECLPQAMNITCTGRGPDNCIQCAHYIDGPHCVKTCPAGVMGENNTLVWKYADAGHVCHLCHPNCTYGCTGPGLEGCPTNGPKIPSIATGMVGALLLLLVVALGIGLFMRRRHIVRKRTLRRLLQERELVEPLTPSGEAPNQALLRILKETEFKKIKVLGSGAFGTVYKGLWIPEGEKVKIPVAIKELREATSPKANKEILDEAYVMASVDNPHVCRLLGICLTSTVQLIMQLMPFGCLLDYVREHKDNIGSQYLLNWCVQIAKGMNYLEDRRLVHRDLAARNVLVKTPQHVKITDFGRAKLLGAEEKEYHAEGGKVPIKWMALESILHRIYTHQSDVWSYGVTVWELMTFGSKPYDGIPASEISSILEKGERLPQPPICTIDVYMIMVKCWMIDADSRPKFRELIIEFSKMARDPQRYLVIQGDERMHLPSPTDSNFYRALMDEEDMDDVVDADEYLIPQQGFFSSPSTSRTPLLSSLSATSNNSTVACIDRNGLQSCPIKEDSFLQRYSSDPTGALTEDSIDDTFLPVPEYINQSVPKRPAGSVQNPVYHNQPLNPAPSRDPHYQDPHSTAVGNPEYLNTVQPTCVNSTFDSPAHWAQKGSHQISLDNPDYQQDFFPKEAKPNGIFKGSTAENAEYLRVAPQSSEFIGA
Experimental: as §1, §2
Binding constants (Kds) were calculated with a standard dose-response curve using the Hill equation: Response=Background+(Signal−Background)/(1+(Kd^Hill Slope/Dose^Hill Slope)). The Hill Slope was set to −1. Curves were fitted using a non-linear least square fit with the Levenberg-Marquardt algorithm.

Row | IC50 (NCI-H1975) | Kd (EGFR) | Kd (EGFR (E746-A750del)) | Kd (EGFR (T790M/L858R)) | SMILES | Tumor growth inhibition (TGI, %) in NCI-H1975 xenograft model ([1]; Day 14, 30 mg/kg) | Efficacy in the NCI-H1975 xenograft study (in words) [1] | Tumor growth inhibition (TGI, %) in NCI-H1975 xenograft model ([1]; Day 14, 6 mg/kg)
1 | 910 nM | – | – | – | C=CC(=O)Nc1cccc(Nc2nc(Nc3ccc(N4CCN(C(C)=O)CC4)cc3OC)ncc2C(F)(F)F)c1 [CO-1686, reference compound] | TGI = 83% | – | –
2 | – | 84 nM | 26 nM | 0.54 nM | C=CC(=O)Nc1cccc(Nc2nc(Nc3ccc(N4CCN(C(C)=O)CC4)cc3)ncc2C(F)(F)F)c1 [Compound 8, N-[3-[[2-[4-(4-acetylpiperazin-1-yl)anilino]-5-(trifluoromethyl)pyrimidin-4-yl]amino]phenyl]prop-2-enamide] | TGI = 49% | good efficacy | –
3 | < 10 nM | 15 nM | 4 nM | 0.037 nM | C=CC(=O)Nc1cccc(Nc2nc(Nc3ccc(N4CCN(CC)CC4)cc3)ncc2C(F)(F)F)c1 [Compound 9, N-[3-[[2-[4-(4-ethylpiperazin-1-yl)anilino]-5-(trifluoromethyl)pyrimidin-4-yl]amino]phenyl]prop-2-enamide] | – | good efficacy; also recorded: much better tumor growth inhibition compared with CO-1686 | TGI = 76%
4 | 150 nM | – | – | 0.28 nM | C=CC(=O)Nc1cccc(Nc2nc(Nc3ccc(N4CCN(CC)CC4)cc3OC)ncc2C(F)(F)F)c1 [Compound 10, N-[3-[[2-[4-(4-ethylpiperazin-1-yl)-2-methoxy-anilino]-5-(trifluoromethyl)pyrimidin-4-yl]amino]phenyl]prop-2-enamide] | – | – | –
5 | 67 nM | – | – | – | C=CC(=O)Nc1cccc(Oc2nc(Nc3ccc(N4CCN(C)CC4)cc3OC)ncc2Cl)c1 [WZ4002, reference compound] | – | – | –
